Test results: US5801222A, “Isolation and structure of the human cancer cell growth inhibitory cyclic octapeptides phakellistatin 10 and 11” (Arizona Board of Regents acting on behalf of Arizona State …, priority 1994, dated 1998)
Residues, ends and D or L forms follow the SMILES beside them.

What was measured:
[1] = test system: CNS cancer cell lines; experiment: NCI in vitro screen, CNS cancer cell lines; assay type: cell-based, human
Description: (§1) Total Growth Inhibition ("TGI") is the drug dose needed to yield zero percent growth, i.e., just as many cells at the end of the experiment as were present in the beginning. Whether just as many cells were killed as were produced (steady state), or no growth occurred (total inhibition), cannot be distinguished.
(§2) Each drug is tested at five (5) doses: 100-10-1-0.1-0.01 μg/ml. Percent Growths are calculated for each dose. The two (or three) doses with growth values above, below, (or near to) 50% growth are used to calculate the ED50 /GI50 using a linear regression formula. The log of the dose is used during the regression computation. If no dose yields a growth value under 50%, the results are expressed as: ED50 >(highest dose). If no dose yields growth higher than 50% growth, then ED50 <(lowest dose). […]
(§3) At the start of an experiment, cells from the in vitro cell cultures are inoculated into the appropriate tubes or microtiter plates. One set of control tubes/plates is immediately counted to determine the number of cells at the start of the experiment. This is the "baseline count", or "Tzero reading". At the end of the experiment (48 hours later) a second set of control tubes/plates is analyzed to determine the "Control Growth" value. The growth (or death) of cells relative to the initial quantity of cells is used to define the "Percent of Growth". […]

[2] = test system: MDA-MB-435 breast cancer cell line; experiment: NCI in vitro screen, MDA-MB-435; assay type: cell-based, human
Excerpt: as §1
(§4) Lethal Concentration 50% ("LC50 ") is the drug concentration which reduces growth to -50%, i.e., removes half of the cells originally present at the beginning of the experiment.
Each drug is tested at five (5) doses: 100-10-1-0.1-0.01 μg/ml. Percent Growths are calculated for each dose. The two (or three) doses with growth values above, below, (or near to) 50% growth are used to calculate the ED50 /GI50 using a linear regression formula. The log of the dose is used during the regression computation. […]
as §3

[3] = test system: NCI's 60-cell line human tumor panel; experiment: NCI 60-cell line human tumor in vitro screen; assay type: cell-based; settings: 60-cell line panel; 10^-5 M high test concentration, log10 dilutions; 48 hours; read-out: overall panel-averaged GI50 concentration
Excerpt: The following measures are used to express drug activity by giving the drug dose which reduces cell growth to a specified percentage of growth:
ED50 (P388) and GI50 (HTCL) are the drug doses needed to reduce the percent growth to 50%. There is no mathematical difference between ED50 and GI50, which are both calculated using the same formula. The only difference is historical usage.
as §1, with “distinguished. […]” for “distinguished.”
Percent Growths are calculated for each dose. […]
as §3

[4] = test system: breast cancer cell lines; experiment: NCI in vitro screen, breast cancer cell lines; assay type: cell-based, human; settings: two breast cancer cell lines
Description: as §1, §2, §3

[5] = test system: five other cell lines; experiment: NCI in vitro screen, five other cell lines; assay type: cell-based, human; settings: five other cell lines (not named)
Description: as §4
Each drug is tested at five (5) doses: 100-10-1-0.1-0.01 μg/ml. Percent Growths are calculated for each dose. The two (or three) doses with growth values above, below, (or near to) 50% growth are used to calculate the ED50 /GI50 using a linear regression formula. The log of the dose is used during the regression computation. If no dose yields a growth value under 50%, the results are expressed as: ED50 >(highest dose). If no dose yields growth higher than 50% growth, then ED50 <(lowest dose). Similar calculations are performed for the TGI at 0% growth, and at -50% growth for the LC50.
as §3

[6] = test system: non-small cell lung cancer cell line; experiment: NCI in vitro screen, non-small cell lung cancer cell line; assay type: cell-based, human; settings: one non-small cell lung cancer cell line
Description: as §1, §2, §3

[7] = test system: ovarian cancer cell line; experiment: NCI in vitro screen, ovarian cancer cell line; assay type: cell-based, human; settings: one ovarian cancer cell line
Description: as §1, §2, §3

Compound | Total Growth Inhibition (TGI) ([1]; two CNS cancer cell lines) | LC50 [2] | GI50 [3] [µM] | Total Growth Inhibition (TGI) [4] | Total Growth Inhibition (TGI) ([1]; one CNS cancer cell line) | LC50 [5] | Total Growth Inhibition (TGI) [6] | Total Growth Inhibition (TGI) [7]
cyclo-(Pro-Leu-Thr-Pro-Ile-Pro-Trp-Val) (PLTPIPWV; head-to-tail cyclic) [phakellistatin 10, cyclic octapeptide isolated from the marine sponge Phakellia sp] | less than 10^-6 M per milliliter | less than 10^-5 M per milliliter | 0.79 | less than 10^-6 M per milliliter |  |  |  | 
CC[C@H](C)[C@@H]1NC(=O)[C@H](Cc2ccccc2)NC(=O)[C@@H]2CCCN2C(=O)[C@H](Cc2ccccc2)NC(=O)[C@@H]2CCCN2C(=O)[C@H](CCC(N)=O)NC(=O)[C@@H]2CCCN2C(=O)[C@H](Cc2ccccc2)NC1=O [phakellistatin 11, cyclo-(Pro-Gln-Pro-Phe-Pro-Phe-Ile-Phe)] (cyclo(FIFPQPFP)) |  | less than 10^-5 M per milliliter | 0.132 | less than 10^-7 M per milliliter | less than 10^-7 M per milliliter | less than 10^-5 M per milliliter | less than 10^-7 M per milliliter | less than 10^-7 M per milliliter
